Laboratory results taken from US11911376B2, “Methods for preventing and treating retinal damage” (THE REGENTS OF THE UNIVERSITY OF COLORADO, priority 2020, dated 2024).

Tests used:
[1] = system: retinal ganglion cells (RGCs); experiment: Ischemia/reperfusion (I/R) injury model in mice, Brn3a-positive RGC loss in flat-mounted retinas; type: in vivo, WT (C57BL/6J) mice
Method: To evaluate the effects of kynurenic acid on retinal conditions characterized by RGC death, e.g., glaucoma, wild-type (WT) mice were subjected to ischemia/reperfusion (I/R) injury, which induced RGC death. I/R injury was performed by first anesthetizing 12-week-old WT (C57BL/6J) mice with an intraperitoneal injection of ketamine/xylazine confirmed by the toe-pinch test. The mice were then placed on a heating pad throughout the procedure to maintain their body temperature. The right eye of each animal was cannulated into the anterior chamber with a 33-gauge needle connected to an elevated saline reservoir. The height of the reservoir was adjusted to achieve an intraocular pressure of 120 mmHg. After 60 min of this procedure, the needle was removed.
(§1) Treatment mice were given kynurenic acid intravenously or intravitreally, while control mice were subjected to the same I/R injury but not given kynurenic acid. Intravenous and intravitreal administration of kynurenic acid was performed immediately after I/R injury and again 24 hours post-injury. Kynurenic acid was injected intravenously via the tail vein into WT mice at a concentration of 2.5 mg/animal (25 mg/mL stock dissolved in 0.1 N NaOH, diluted in 0.1 M sodium phosphate buffer, and adjusted to pH 7). After 2 hours, kynurenic acid levels in the serum and retina were measured. Control animals received 0.1 M sodium phosphate buffer (pH 7) alone.
Kynurenic acid was injected intravitreally into separate WT mice at a concentration of either 5 or 10 μg/animal (5 mg/mL stock of kynurenic acid was dissolved in 0.1 N NaOH and diluted in 0.1 M sodium phosphate buffer adjusted to pH 7). Control animals were intravitreally injected with buffer alone. Intravitreal injection was performed using a 33-gauge needle attached to a Hamilton syringe (Hamilton Bonaduz AG, Bonaduz, Switzerland). The eye lids were carefully parted, and the 33-gauge needle was inserted at a 45° angle into the vitreous, just behind the limbus. One or two microliters of solution was injected in 1 μL increments with a 30 second gap between each injection. After injection, the needle was slowly withdrawn, and the injected area was treated with a topical antibiotic. Mice were anesthetized with a cocktail containing ketamine and xylazine prior to the intravitreal injections.
All mice were euthanized and retinas dissected 14 days after I/R injury, flat-mounted and immunostained for Brn3a (brain-specific homeobox/POU domain protein 3A), which is a marker for RGCs.

[2] = Kynurenic acid levels in serum and retina by LC-MS/MS after intravenous injection (blood retinal barrier permeability); type: in vivo, WT mice; conditions: intravenous 2.5 mg/animal, two hours after injection, relative to sodium phosphate buffer-injected control mice, *p<0.05
Method: as §1
To first determine whether kynurenic acid is permeable across the blood retinal barrier, kynurenic acid levels in the serum and retina of six WT mice intravenously injected with kynurenic acid (KYNA) were measured by LC=MS/MS two hours after injection.

With `O=C(O)c1cc(=O)c2ccccc2[nH]1` [kynurenic acid] the “level of RGC loss, central retina” value ([1]; intravenous 2.5 mg/animal immediately after I/R injury and again 24 hours post-injury, Brn3a-positive RGCs per mm2, 14 days after I/R, I/R control 36.3%) was 11.2%, the “level of RGC loss, peripheral retina” value ([1]; intravenous 2.5 mg/animal immediately after I/R injury and again 24 hours post-injury, Brn3a-positive RGCs per mm2, 14 days after I/R, I/R control 50%) was 29.4% and the “level of RGC loss, central retina” value ([1]; intravitreal 5 μg immediately after I/R and 24 hours post-injury, 14 days after I/R, I/R control 66.1%) was 32.4%. For the same compound, the “level of RGC loss, peripheral retina” value ([1]; intravitreal 5 μg immediately after I/R and 24 hours post-injury, 14 days after I/R, I/R control 70.9%) was 46.1%, the “level of RGC loss, central retina” value ([1]; intravitreal 10 μg immediately after I/R and 24 hours post-injury, 14 days after I/R, I/R control 66.1%) was 18.5% and the “level of RGC loss, peripheral retina” value ([1]; intravitreal 10 μg immediately after I/R and 24 hours post-injury, 14 days after I/R, I/R control 70.9%) was 26.8%. For the same compound, the “kynurenic acid levels in retina” value [2] was “increased significantly” and the “kynurenic acid levels in serum” value [2] was “increased significantly”.
